Literature values as cited in patent US7195789B2, “Non-fiber extract of psyllium with anti-tumorigenic effects and method for identifying the same” (Board of Trustees of Michigan State University, priority 2002, dated 2007).

Assays:
WB-Ha-ras cells [1] = conditions: WB-Ha-ras cell line; Na et al. 2000
WB-Ha-ras cells [2] = conditions: WB-Ha-ras cell line; Na et al. 2000; remark: listed apart in the source
connexin 43 = conditions: Na et al. 2000
ras protein (p21^ras) = conditions: Na et al. 2000

In the case of O=C(/C=C/c1ccc(O)c(O)c1)OCCc1ccccc1 [CAPE, phenylethyl ester of caffeic acid], the “inhibition of AIG” value (WB-Ha-ras cells [1]) is listed as “inhibited AIG”, the “restoration of GJIC” value (WB-Ha-ras cells [2]) is listed as “restored GJIC” and the “expression of hyperphosphorylated Cx43” value (connexin 43) is listed as “restored”. The “protein level of p21^ras by Western blot” value (ras protein (p21^ras)) was “decreased”.
